# Measurements as given in publication PMC8330100, “Similarities and differences in the localization, trafficking, and function of P-glycoprotein in MDR1-EGFP-transduced rat versus human brain capillary endothelial cell lines” (Fluids and Barriers of the CNS, 2021).
# Molecular target: T1, Pgp in RBE4-MDR1-EGFP cells (Homo sapiens, UniProt P08183)
# T1 construct: expressed in transfected cells; host or cells: RBE4 (rat BCEC line), lentiviral transduction, doxycycline-inducible
# Experiment: Rhodamine 123 uptake/accumulation assay, RBE4-MDR1-EGFP cells
# Format: cell-based, rat
# Details: RBE4-MDR1-EGFP in the presence of doxycycline; tariquidar 0.5 µM
# Protocol: Piet Borst (The Netherlands Cancer Institute, Amsterdam, The Netherlands) as template. The linker sequence in the vector fusing EGFP and MDR1 consists of 36 bp ([…]). hCMEC/D3-WT, RBE4-WT, and hCMEC/D3-MDR1-EGFP cell lines were cultivated as previously described. The same culture conditions were used for the newly prepared RBE4-MDR1-EGFP cell line. As described previously, hydrocortisone (1.4 µM) was added to the culture medium to enhance the expression and functionality of Pgp and transendothelial resistance. All endothelial cell lines were grown on rat-tail collagen I (60 µg/mL, Gibco) coated 100 mm cultures dishes or permeable membrane supports at 37 °C and 5% CO2. Pgp-EGFP protein expression in MDR1-EGFP transduced cells was induced by cell cultivation in medium containing […] doxycycline. Expression of Pgp-EGFP was regularly verified by observing the cells with an inverted fluorescence microscope. Doxycycline supplementation of the medium was maintained during the whole culturing period of Pgp-EGFP expressing cells. For experiments, hCMEC/D3 and RBE4 cells were seeded in a density of 50,000 cells/cm^2. Immortalized MDR1 transfected porcine kidney LLC-PK1 (LLC-MDR1) cells, which were used as a reference standard for vectorial transport experiments, were kindly provided by Prof. Piet Borst. […]
compound,measurement,value
"COC(=O)c1ccccc1-c1c2ccc(=N)cc-2oc2cc(N)ccc12 [Rho123, rhodamine 123]",increase of Rho123 efflux (accumulation in absence vs presence of tariquidar),~ 7 fold
